From patent publication US5948786A, “Piperidinylpyrimidine derivatives” (Sumitomo Pharmaceuticals Company, Limited, priority 1996, dated 1999) come the findings set out here.

The term inhibition denotes the drop in the measured response relative to a control, in per cent.

Format in all cases: cell-based
For experiment [1], the system named is TNF α production from human peripheral blood mononuclear cells (PBMC). The experiment can be described thus: Inhibitory activity of compound on TNF α production from PBMC. As to the method: TNF α was induced by 10 μg/ml of LPS (E. coli O111B4, DIFCO, Detroit, Mich., USA) the cells were cultured for 18 hours at 37° C. A compound of the present invention was dissolved in DMSO and added to the culture simultaneously with LPS. […] Each well of the plate first was incubated at room temperature with biotinylated anti-mouse TNF α polyclonal antibodies (PharMingen) for 45 minutes, then with peroxidase-conjugated streptavidin (Kirkegaard & Perry Laboratories Inc., Gaitherburg, Md., USA) for 30 minutes. After each incubation, the plate was washed 4 to 8 times with PBS containing 0.2% Tween 20. TMB (Kirkegaard & Perry Laboratories Inc.) was the peroxidase substrate used and, the absorbance of each well was quantified at 450 nm by a microplatereader (Molecular Devices Corp., CA, USA). TNF α levels in the supernatant were quantified with rm-TNF α as the standard. Inhibitory activity of TNF α production was also quantified using human peripheral blood mononuclear cells(PBMC) instead of PEC's. Results are shown in table 9, 10, 11, 12, 13, 14, 15, 16, 17, 18, 19 and 20.

The test system of experiment [2] is Tat induced HIV-1 LTR-CAT gene expression in Jurkat cells. Kind of experiment: Tat induced HIV-1 LTR-CAT gene expression in Jurkat cells. The settings on record: Homo sapiens, Tat (pSV-Tat), 24 hours. As to the method: (§1) p469, HIV-1 LTR driven CAT and pSV-Tat, Tat-expression vector were kindly provided from Dr. Gary J. Nabel (Nature Vol. 326, 711(1987))
(§2) RPMI 1640 medium (Life Technologies, Grand Island, N.Y., USA) was supplemented with heat-inactivated fetal calf serum (FBS; Sigma, St. Louis, Mo., USA).
(§3) Human T lymphoma cell line, Jurkat, was cultured in medium described above Transfection;
(§4) Introduction of plasmid DNA into cells was carried out according to the method described in Chiang, J. Li et al., Proc. Natl. Acad. Sci. Vol. 92, 5461-5464 (1995). Briefly, the cells were suspended with the medium at 2×10^7 cells/ml followed by addition 1 μg of p469 and 0.5 μg of DEAE-dextran (Sigma). In some experiments the cells were co-transfected with 0.5 μg of pSV-Tat. After 10 minutes incubation at room temperature with occasionally mixing, the cells were pulsed with electroporation apparatus at 140 V. The cells were re-suspended with the fresh medium and cultured for 20 hours at 37° C.
(§5) A compound tested was dissolved in dimethylsulfoxide at 100 mM as a stock solution. The aliquots of the stock solution were kept frozen at -20° C. Jurkat cells transfected with p469 were treated with 10 ng/ml of phorbol 12-myristate 13-acetate (PMA; Sigma) to activate HIV-1-LTR directed CAT gene transcription in the presence of the compound. In the case of cells transfected with p469 and pSV-Tat, they were simply treated with the compound. After the cells were cultured for an additional 24 hours at 37° C., the cells were washed 2 times with phosphate-buffered saline and lysed in 50 mM Tris-HCl plus 15% glycerol with repeated cycles of freeze and thaw. The cell lysates were clarified by centrifugation followed by determination of protein concentration by Bradford method (Bio-Rad, Hercules, Calif., USA). Measurement of a CAT activity in cell lysates was carried out according to a similar method described in Fridovich-Keil J. L. et. al., Cell Growth and Differentiation, Vol. 2, 67-76(1991). Equal amount (30 μg of protein) of cell lysates was incubated at 37° C. with 35 μg of acetyl co-enzyme A (GIBCO/BRL, Grand Island, Mo., USA) and 0.1 μCi of 14C-chloramphenicol (Dupont, NEN Boston, Mass., USA) in […] solution for 2 hours. Acetyl-14C-chloramphenicol was extracted with 9 volumes of ethyl acetate and fractionated on a TLC gel with 1:19 (v/v) in methanol/chloroform. The CAT activity was detected by autoradiography and quantified by an Imaging Densitometer (model GS-700; Bio-Rad).

The test system of experiment [3] is TNF α production from mouse macrophages. The experiment can be described thus: Inhibitory activity of compound on TNF α Production from mouse macrophages (LPS-induced PEC's). The settings on record: Macrophage, LPS 10 μg/ml, 18 hours. In outline: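 Thioglycollate-elicited peritoneal macrophages from female BALB/c mice (adherent, 2×10^5 cells/well) were stimulated with 10 μg/ml LPS plus compound (final DMSO below 0.1%) for 18 h at 37°C. Supernatant TNF α was measured by sandwich ELISA (TMB, 450 nm) against a recombinant mouse TNF α standard.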

For experiment [4], the system named is HIV-1 LTR-CAT gene expression in Jurkat cells. The experiment can be described thus: PMA induced HIV-1 LTR-CAT gene expression in Jurkat cells. The settings on record: Homo sapiens, PMA 10 ng/ml, 24 hours. As to the method: as §1, §2, §3, §4, §5

Turning to `COc1cc(Cc2cc(C3CCN(C(=O)c4ccc5c(c4)OCO5)CC3)nc(N)n2)cc(OC)c1OC` [Example 309], in experiment [1], the inhibition at 30 µM came out at 65%. In experiment [2], the inhibition at 5 µM was 62%.

Take `COc1cc(Cc2cc(C3CCN(C(=O)c4ccc5c(c4)OCO5)CC3)nc(N)n2)cc(OC)c1` [Example 308]: the inhibition at 30 µM in experiment [1] was determined as 87%. In addition, in experiment [2], the inhibition at 5 µM was determined as 70%.

As to `Nc1nc(-c2ccc(Cl)cc2)cc(C2CCN(C(=O)c3ccc4c(c3)OCO4)CC2)n1` [Example 150], the inhibition at 30 µM in experiment [3] came out at 100%; in experiment [1], 11%. Also, in experiment [4], the inhibition at 5 µM came out at 54%.

`Nc1nc(Cc2ccc(Br)cc2)cc(C2CCN(C(=O)c3ccc4c(c3)OCO4)CC2)n1` [Example 303, 2-Amino-4-(4-bromophenylmethyl)-6-[1-(3,4-methylenedioxybenzoyl)-4-piperidinyl]pyrimidine]: the inhibition at 30 µM in experiment [1] turned out to be 92%. Moreover, the inhibition at 5 µM in experiment [2] worked out at 65%.

For `Nc1nc(CCc2ccccc2)cc(C2CCN(C(=O)c3ccc4c(c3)OCO4)CC2)n1` [Example 259], the inhibition at 30 µM in experiment [1] amounted to 68%. Further, the values for the inhibition at 5 µM in experiment [4] and in experiment [2] were 25% and 51%, respectively.

As to `Nc1nc(Cc2ccc(O)cc2)cc(C2CCN(C(=O)c3ccc4c(c3)OCO4)CC2)n1` [Example 315, 2-Amino-4-(4-hydroxyphenylmethyl)-6-[1-(3,4-methylenedioxybenzoyl)-4-piperidinyl] pyrimidine], the inhibition at 30 µM in experiment [1] came to 86%.

Turning to `Nc1nc(Cc2ccccc2Cl)cc(C2CCN(C(=O)c3ccc4c(c3)OCO4)CC2)n1` [Example 310], in experiment [1], the inhibition at 30 µM stood at 83%. The inhibition at 5 µM in experiment [2] is 67%.

In the case of `COc1ccc(Cc2cc(C3CCN(C(=O)c4ccc5[nH]cnc5c4)CC3)nc(N)n2)cc1` [Example 289], the inhibition at 30 µM in experiment [1] was determined as 93%.

In the case of `Nc1nc(Cc2ccccc2)cc(C2CCN(C(=O)c3ccc4c(c3)OCO4)CC2)n1` [Example 304], the inhibition at 30 µM in experiment [1] was found to be 83%. Moreover, the inhibition at 5 µM in experiment [2] came out at 44%.

As for `COc1ccc(Cc2cc(C3CCN(C(=O)c4ccc5[nH]ccc5c4)CC3)nc(N)n2)cc1` [Example 290], the inhibition at 30 µM in experiment [1] is 101%.

For the molecule `COc1ccc(Cc2cc(C3CCN(C(=O)c4ccc(O)c(O)c4)CC3)nc(N)n2)cc1` [Example 302, 2-Amino-4-[1-(3,4-dihydroxybenzoyl)-4-piperidinyl]-6-(4-methoxyphenylmethyl) pyrimidine], the inhibition at 30 µM in experiment [1] is 86%.

As to `COc1ccc(Cc2cc(C3CCN(C(=O)c4ccc5c(c4)OCO5)CC3)nc(N)n2)cc1OC` [Example 306], the inhibition at 30 µM in experiment [1] turned out to be 85%. Besides, the values for the inhibition at 5 µM in experiment [4] and in experiment [2] were 75% and 22%, respectively.

On to `COc1ccc(Cc2cc(C3CCN(C(=O)c4ccc(O)c(OC)c4)CC3)nc(N)n2)cc1` [Example 300], for which the inhibition at 30 µM in experiment [1] amounted to 80%.

In the case of `Nc1nc(Cc2c(Cl)cccc2Cl)cc(C2CCN(C(=O)c3ccc4c(c3)OCO4)CC2)n1` [Example 313], the inhibition at 30 µM in experiment [1] stood at 91%. Also, in experiment [2], the inhibition at 5 µM amounted to 69%.

Take `COc1ccc2nc(N)nc(C3CCN(C(=O)c4ccc5c(c4)OCO5)CC3)c2c1` [Example 117]: the inhibition at 30 µM stood at 54% in experiment [3] and 43% in experiment [1]. Further, the results for the inhibition at 5 µM in experiment [4] and in experiment [2] were 92% and 36%, respectively.

For `COc1ccc(-c2cc(C3CCN(C(=O)c4ccc5c(c4)OCO5)CC3)nc(N)n2)cc1` [Example 157], the inhibition at 30 µM amounted to 84% in experiment [3] and 37% in experiment [1]. For the same molecule, the inhibition at 5 µM in experiment [4] came out at 81%.

Regarding `Nc1nc(C2CCN(C(=O)c3ccc4c(c3)OCO4)CC2)c2ccccc2n1` [Example 65], in experiment [1], the inhibition at 30 µM came to 46%. Further, the results for the inhibition at 5 µM in experiment [4] and in experiment [2] were 94% and 81%, respectively.

As for `COc1cccc(Cc2cc(C3CCN(C(=O)c4ccc5c(c4)OCO5)CC3)nc(N)n2)c1` [Example 305], in experiment [1], the inhibition at 30 µM is 80%. In experiment [2], the inhibition at 5 µM was 72%.

Take `Nc1nc(Cc2ccc(Cl)c(Cl)c2)cc(C2CCN(C(=O)c3ccc4c(c3)OCO4)CC2)n1` [Example 311]: in experiment [1], the inhibition at 30 µM amounted to 69%. Besides, the inhibition at 5 µM in experiment [2] was 63%.

Take `Nc1nc(Cc2ccc3c(c2)OCO3)cc(C2CCN(C(=O)c3ccc4c(c3)OCO4)CC2)n1` [Example 314]: in experiment [1], the inhibition at 30 µM is 84%. Also, the inhibition at 5 µM in experiment [2] came out at 76%.

In the case of `Nc1nc(-c2ccccc2)cc(C2CCN(C(=O)c3ccc4c(c3)OCO4)CC2)n1` [Example 140], the inhibition at 30 µM in experiment [3] was 72%; in experiment [1], 35%. Moreover, the inhibition at 5 µM in experiment [4] turned out to be 100%.

Turning to `Nc1nc(Cc2ccc(Cl)cc2Cl)cc(C2CCN(C(=O)c3ccc4c(c3)OCO4)CC2)n1` [Example 312], the inhibition at 30 µM in experiment [1] amounted to 57%. Moreover, the inhibition at 5 µM in experiment [2] is 65%.

Turning to `COc1ccc(Cc2cc(C3CCN(C(=O)c4ccc5c(c4)OCO5)CC3)nc(N)n2)cc1` [Example 210, 2-amino-4-(4-methoxybenzyl)-6-[1-(3,4-methylenedioxybenzoyl)-4-piperidinyl]pyrimidine], the inhibition at 30 µM was determined as 75% in experiment [3] and 80% in experiment [1]. Besides, the inhibition at 5 µM in experiment [4] was 81%; in experiment [2], 66%.

For the molecule `Nc1nc(C2CCN(C(=O)c3ccc4c(c3)OCO4)CC2)c2cc(Cl)ccc2n1` [Example 130], the results for the inhibition at 30 µM in experiment [3] and in experiment [1] were 100% and 57%, respectively. For the same molecule, the inhibition at 5 µM in experiment [4] came out at 67%.

With `COc1ccc(OC)c(Cc2cc(C3CCN(C(=O)c4ccc5c(c4)OCO5)CC3)nc(N)n2)c1` [Example 307], in experiment [1], the inhibition at 30 µM turned out to be 81%. The values for the inhibition at 5 µM in experiment [4] and in experiment [2] were 97% and 66%, respectively.
